From patent US20150105252A1, “SUBSTITUTED PYRAZOLES AS HERBICIDES” (E I DU PONT DE NEMOURS AND COMPANY, priority 2013, published 2015)

Tests used:
[1] = tested on: johnsongrass; assay: Test C preemergence; format: in vivo, Sorghum halepense; settings: for Plant response rating (scale of 0 to 100), Johnsongrass: Preemergence, 250 g ai/ha; for Johnsongrass plant response rating: preemergence
Method in brief: (§1)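 In this greenhouse assay, seeded soil (loam plus sand) or emerged seedlings in peat-vermiculite medium were treated with formulated compound. Roughly two weeks later (13–15 days), each species was scored visually relative to controls, from 0 for no effect to 100 for complete control.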

[2] = tested on: corn; assay: Test C postemergence; format: in vivo, Zea mays; settings: for Plant response rating (scale of 0 to 100 where 0 is no effect and 100 is complete control), Corn: Postemergence, 31 g ai/ha, visually evaluated after 13 to 15 days; for Corn plant response rating / Plant response rating, Corn: postemergence; for Corn plant response rating: 62 g ai/ha, scale 0 to 100
Method in brief: as §1

[3] = tested on: chickweed; assay: Test C postemergence; format: in vivo, Stellaria media; settings: for Plant response rating (scale of 0 to 100 where 0 is no effect and 100 is complete control), Chickweed: Postemergence, 31 g ai/ha, visually evaluated after 13 to 15 days; for Chickweed plant response rating / Plant response rating, Chickweed: postemergence; for Chickweed plant response rating: 62 g ai/ha, scale 0 to 100
Method in brief: as §1

[4] = tested on: ducksalad; assay: Test B flood; format: in vivo, Heteranthera limosa; settings: 250 g ai/ha, visual rating on 0 to 100 scale (0 no effect, 100 complete control), 13 to 15 days
Method in brief: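 Each compound is applied to the floodwater of pots holding 2-leaf seedlings, water standing 3 cm over the soil throughout. Plants stay in a greenhouse 13 to 15 days before visual scoring against controls from 0 (no effect) to 100 (complete control).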

[5] = tested on: barnyardgrass; assay: Test C preemergence; format: in vivo, Echinochloa crus-galli; settings: for Plant response rating (scale of 0 to 100), Barnyardgrass: Preemergence, 250 g ai/ha; for Barnyardgrass plant response rating: preemergence
Method in brief: as §1

[6] = tested on: lambsquarters; assay: Test C preemergence; format: in vivo, Chenopodium album; settings: for Plant response rating (scale of 0 to 100), Lambsquarters: Preemergence, 250 g ai/ha; for Lambsquarters plant response rating: preemergence
Method in brief: as §1

[7] = tested on: ryegrass, Italian; assay: Test C postemergence; format: in vivo, Lolium multiflorum; settings: for Plant response rating (scale of 0 to 100 where 0 is no effect and 100 is complete control), Ryegrass, Italian: Postemergence, 31 g ai/ha, visually evaluated after 13 to 15 days; for Ryegrass, Italian plant response rating / Plant response rating, Ryegrass, Italian: postemergence; for Ryegrass, Italian plant response rating: 62 g ai/ha, scale 0 to 100
Method in brief: as §1

[8] = tested on: morningglory; assay: Test A preemergence; format: in vivo, Ipomoea spp.; settings: preemergence
Method in brief: (§2)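 Pre- and postemergence greenhouse test; loam+sand; cpd in non-phytotox. solvent/surfactant; post at 1–2 leaf, 2–10 cm; visual score ~10 d, 0 = none, 100 = complete control.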

[9] = tested on: barnyardgrass; assay: Test A postemergence; format: in vivo, Echinochloa crus-galli
Method in brief: as §2

[10] = tested on: crabgrass, large; assay: Test C postemergence; format: in vivo, Digitaria sanguinalis; settings: for Plant response rating (scale of 0 to 100 where 0 is no effect and 100 is complete control), Crabgrass, Large: Postemergence, 31 g ai/ha, visually evaluated after 13 to 15 days; for Crabgrass, Large plant response rating / Plant response rating, Crabgrass, Large: postemergence; for Crabgrass, Large plant response rating: 62 g ai/ha, scale 0 to 100
Method in brief: as §1

[11] = tested on: pigweed; assay: Test C postemergence; format: in vivo, Amaranthus retroflexus; settings: for Plant response rating (scale of 0 to 100 where 0 is no effect and 100 is complete control), Pigweed: Postemergence, 31 g ai/ha, visually evaluated after 13 to 15 days; for Pigweed plant response rating / Plant response rating, Pigweed: postemergence; for Pigweed plant response rating: 62 g ai/ha, scale 0 to 100
Method in brief: as §1

[12] = tested on: soybean; assay: Test C preemergence; format: in vivo, Glycine max; settings: for Plant response rating (scale of 0 to 100), Soybean: Preemergence, 250 g ai/ha; for Soybean plant response rating: preemergence
Method in brief: as §1

[13] = tested on: blackgrass; assay: Test C preemergence; format: in vivo, Alopecurus myosuroides; settings: for Plant response rating (scale of 0 to 100), Blackgrass: Preemergence, 250 g ai/ha; for Blackgrass plant response rating: preemergence
Method in brief: as §1

[14] = 31 g ai/ha, visual rating, scale 0 to 100 (0 no effect, 100 complete control), 13 to 15 days
[15] = 62 g ai/ha, scale 0 to 100 (0 no effect, 100 complete control), 13 to 15 days
[16] = 125 g ai/ha, scale 0 to 100, 0 is no effect, 100 is complete control
[17] = 250 g ai/ha, scale 0 to 100 (0 no effect, 100 complete control)
[18] = 125 g ai/ha, scale 0 to 100, 0 no effect, 100 complete control
[19] = 31 g ai/ha, scale 0 to 100 (0 no effect, 100 complete control), 13 to 15 days
[20] = 125 g ai/ha, visual injury, 0 to 100 scale, approx. 10 days
[21] = 500 g ai/ha, visual injury after approx. 10 days, 0 to 100 scale (0 no effect, 100 complete control)
[22] = Postemergence, 500 g ai/ha, visual rating after approx. 10 days, 0 to 100 scale (0 no effect, 100 complete control)
[23] = postemergence, 125 g ai/ha, about 10 days, visual rating on 0 to 100 scale (0 no effect, 100 complete control)

CCCNC(=O)c1cc(CC)n(Cc2nc(C(F)(F)F)nn2C)n1 [Compound 109]
0: Plant response rating, Ducksalad [4]
10: Corn plant response rating [2] | Plant response rating, Ryegrass, Italian [7, 17] | Crabgrass, Large plant response rating [10] | Plant response rating, Crabgrass, Large [10, 18] | Plant response rating (scale of 0 to 100 where 0 is no effect and 100 is complete control), Pigweed [11]
50: Chickweed plant response rating [3]
95: Soybean plant response rating [12, 15]
40: Plant response rating (scale of 0 to 100 where 0 is no effect and 100 is complete control), Chickweed [3] | Pigweed plant response rating [11]
45: Plant response rating, Crabgrass, Large [10, 17]
70: Soybean plant response rating [12, 14]
15: Plant response rating, Corn [2, 17] | Plant response rating, Corn [2, 18]
90: Johnsongrass plant response rating [1, 15] | Barnyardgrass plant response rating [9, 22] | Barnyardgrass plant response rating [9, 23]
55: Plant response rating, Chickweed [3, 18]
100: Plant response rating (scale of 0 to 100), Johnsongrass [1] | Johnsongrass plant response rating [1, 16] | Plant response rating (scale of 0 to 100), Barnyardgrass [5] | Barnyardgrass plant response rating [5, 19] | Barnyardgrass plant response rating [5, 15] | Barnyardgrass plant response rating [5, 16] | Plant response rating (scale of 0 to 100), Lambsquarters [6] | Lambsquarters plant response rating [6, 14] | Lambsquarters plant response rating [6, 15] | Lambsquarters plant response rating [6, 16] | Morningglory plant response rating [8, 20] | Morningglory plant response rating [8, 21] | Plant response rating (scale of 0 to 100), Blackgrass [13] | Blackgrass plant response rating [13, 14] | Blackgrass plant response rating [13, 15] | Blackgrass plant response rating [13, 16]
65: Plant response rating, Chickweed [3, 17] | Plant response rating, Pigweed [11, 17] | Plant response rating, Pigweed [11, 18]
80: Johnsongrass plant response rating [1, 14]
98: Plant response rating (scale of 0 to 100), Soybean [12] | Soybean plant response rating [12, 16]
5: Plant response rating (scale of 0 to 100 where 0 is no effect and 100 is complete control), Corn [2] | Plant response rating (scale of 0 to 100 where 0 is no effect and 100 is complete control), Ryegrass, Italian [7] | Ryegrass, Italian plant response rating [7] | Plant response rating, Ryegrass, Italian [7, 18] | Plant response rating (scale of 0 to 100 where 0 is no effect and 100 is complete control), Crabgrass, Large [10]

CCc1cc(C(=O)NCC(F)(F)F)nn1Cc1nc(C(F)(F)F)nn1C [Compound 107]
100: Plant response rating (scale of 0 to 100), Johnsongrass [1] | Plant response rating (scale of 0 to 100 where 0 is no effect and 100 is complete control), Chickweed [3] | Chickweed plant response rating [3] | Plant response rating, Chickweed [3, 17] | Plant response rating, Chickweed [3, 18] | Plant response rating (scale of 0 to 100), Barnyardgrass [5] | Barnyardgrass plant response rating [5, 15] | Barnyardgrass plant response rating [5, 16] | Plant response rating (scale of 0 to 100), Lambsquarters [6] | Lambsquarters plant response rating [6, 14] | Lambsquarters plant response rating [6, 15] | Lambsquarters plant response rating [6, 16] | Morningglory plant response rating [8, 21] | Plant response rating (scale of 0 to 100), Blackgrass [13] | Blackgrass plant response rating [13, 15] | Blackgrass plant response rating [13, 16]
90: Johnsongrass plant response rating [1, 16] | Morningglory plant response rating [8, 20] | Barnyardgrass plant response rating [9, 22]
15: Soybean plant response rating [12, 14]
80: Barnyardgrass plant response rating [9, 23]
0: Plant response rating (scale of 0 to 100 where 0 is no effect and 100 is complete control), Ryegrass, Italian [7]
65: Johnsongrass plant response rating [1, 15]
50: Plant response rating (scale of 0 to 100 where 0 is no effect and 100 is complete control), Pigweed [11]
5: Plant response rating (scale of 0 to 100 where 0 is no effect and 100 is complete control), Corn [2] | Corn plant response rating [2] | Plant response rating, Corn [2, 18] | Ryegrass, Italian plant response rating [7] | Plant response rating, Ryegrass, Italian [7, 17] | Plant response rating, Ryegrass, Italian [7, 18] | Plant response rating (scale of 0 to 100 where 0 is no effect and 100 is complete control), Crabgrass, Large [10]
85: Plant response rating, Crabgrass, Large [10, 17] | Pigweed plant response rating [11] | Plant response rating, Pigweed [11, 17] | Plant response rating, Pigweed [11, 18]
95: Plant response rating (scale of 0 to 100), Soybean [12] | Soybean plant response rating [12, 15] | Soybean plant response rating [12, 16] | Blackgrass plant response rating [13, 14]
30: Johnsongrass plant response rating [1, 14] | Crabgrass, Large plant response rating [10]
70: Plant response rating, Ducksalad [4]
45: Plant response rating, Crabgrass, Large [10, 18]
40: Plant response rating, Corn [2, 17] | Barnyardgrass plant response rating [5, 19]
